Laboratory results from US20040157866A1, “Amide compounds” (priority 2001, published 2004).

Tests used:
ddY-mice = test: Test 2: Lipids Lowering Effect on ddY-Mice; format: in vivo; conditions: male ddY-mice, oral dose 10 mg/kg, relative to baseline; for Cholesterol (% of 0 hr) 2 hr: plasma total-cholesterol 2 hours after administration; for Triglyceride (% of 0 hr) 2 hr: plasma triglyceride 2 hours after administration
Text: Test 2: Lipids Lowering Effect on ddY-Mice
Male ddY-mice were housed in temperature- and humidity-controlled rooms and fed with laboratory chow. The animals were randomized according to their body weight and deprived of food just before the experiment. A blood sample (baseline blood sample) was collected from the retro orbital venous plexus before administration of the test drug, and then the animals were orally dosed with the test drug in a vehicle (aqueous solution of 0.5% methylcellulose). Blood samples were drawn at 2 hours after drug administration for the measurement of cholesterol and triglyceride.
Plasma total-cholesterol and plasma triglyceride were determined by conventional enzyme methods using commercially available kits. The cholesterol CII-Test Wako (Wako Pure Chemical Industries, Ltd.) was used for the measurement of cholesterol, and the triglyceride E-test Wako (Wako Pure Chemical Industries, Ltd.) was used for the measurement of triglyceride.
Lipids lowering effects were shown in percent relative to the baseline level (level at 0 hr).

Apo B secretion = test: Test 1: Measurement of Inhibition of Apo B Secretion (HepG2 cells, ELISA); format: cell-based; conditions: 1 × 10^−8 M test compound, 15-hour incubation, 0.1% DMSO treated cells as controls; for inhibition at 0.01 µM: Homo sapiens
Protocol: Test 1: Measurement of Inhibition of Apo B Secretion
HepG2 cells were seeded in Eagles medium containing 10% fetal calf serum (FCS) at a density of 30000 cells/well in 96-well plates and allowed to grow for 3 days before treatment. At this time, the medium was replaced with fresh medium containing 0.1% dimethyl sulfoxide (DMSO) and the indicated concentrations of a test compound. After 15-hour incubation, the amount of Apo B and Apo AI accumulated in the media was determined by ELISA.
The assay was carried out at room temperature. A flat bottomed micro ELISA plate (manufactured by Nunc) was coated with an anti Apo B monoclonal antibody solution ([…] in 0.05% carbonate buffer, pH 9.6) by adding the antibody solution at a volume of 100 μl per well. After 1-hour incubation on a plate mixer, the unbound materials were removed by washing the well 3 times with a washing buffer (phosphate buffered saline, pH 7.2 containing 0.1% bovine serum albumin and 0.05% Tween-20). Then 20 μl of a solution of the test compound (dissolved in the culture medium) and 100 μl of a solution of peroxidase coupled anti Apo B antibody were added. After 1-hour incubation on a plate mixer, washing was performed 3 times to remove the unbound materials. A freshly prepared substrate solution (2.5 mg/ml ortho-phenylene diamine and 0.018% H2O2 in 0.11M Na2HPO4-0.044 M sodium citrate buffer, pH 5.4) at a volume of 200 μl was then added to each well. After 20-minute incubation, the enzyme reaction was terminated by adding 50 μl of 0.5 M sulfuric acid. Absorbance of each well was determined at 490 nm using a microplate reader. Apo B concentration was calculated from a standard curve generated from purified Apo B standard that was run in parallel in the same plate. Inhibition of Apo B secretion by the test compound is calculated taking 0.1% DMSO treated cells as controls.
Measurement of Apo AI was performed similar to that of Apo B, except for diluting the sample 11-fold with a dilution buffer (phosphate buffered saline, pH 7.2 containing 0.5% bovine serum albumin and 0.05% Tween-20).
Apo B secretion inhibitors are identified as compounds that decrease Apo B secretion without affecting the secretion of Apo AI.

**Q.** Which results are given for `O=C(Nc1ccc2c(c1)CCN2CCc1ccccn1)c1ccccc1-c1ccc(C(F)(F)F)cc1` [Example 1, N-{1-[2-(2-Pyridinyl)ethyl]-2,3-dihydro-1H-indol-5-yl}-4′-(trifluoromethyl)-1,1′-biphenyl-2-carboxamide]?
**A.** Cholesterol (% of 0 hr) 2 hr (ddY-mice): 90 % of 0 hr; Triglyceride (% of 0 hr) 2 hr (ddY-mice): 13 % of 0 hr; inhibition at 0.01 µM (Apo B secretion): 92.2%

**Q.** What does the source list for `O=C(Nc1ccc2c(c1)CCN2C(=O)Cc1ccccn1)c1ccccc1-c1ccc(C(F)(F)F)cc1` [Example 4, N-[1-(2-Pyridinylacetyl)-2,3-dihydro-1H-indol-5-yl]-4′-(trifluoromethyl)-1,1′-biphenyl-2-carboxamide]?
**A.** Cholesterol (% of 0 hr) 2 hr (ddY-mice): 75 % of 0 hr; Triglyceride (% of 0 hr) 2 hr (ddY-mice): 13 % of 0 hr; Inhibition of Apo B secretion at 1 × 10^−8 M (%) (Apo B secretion): 92.0%

**Q.** Which “Inhibition of Apo B secretion at 1 × 10^−8 M (%)” value (Apo B secretion) does the source give for `Cc1ccc(-c2cc(C)ccc2C(=O)Nc2ccc3c(c2)CCN3C(=O)Cc2ccccn2)cc1` [Example 11, 4′,5-Dimethyl-N-[1-(2-pyridinylacetyl)-2,3-dihydro-1H-indol-5-yl]-1,1′-biphenyl-2-carboxamide] here?
**A.** The value was 97.2%.

**Q.** How did the inhibition at 0.01 µM (Apo B secretion) turn out when `Nc1nc(CC(=O)N2CCc3cc(NC(=O)c4ccccc4-c4ccc(C(F)(F)F)cc4)ccc32)cs1` [Example 58, N-{1-[(2-amino-1,3-thiazol-4-yl)acetyl]-2,3-dihydro-1H-indol-5-yl}-4′-(trifluoromethyl)-1,1′-biphenyl-2-carboxamide] was run?
**A.** Its inhibition at 0.01 µM is 90.7%.
